Measurements taken from PubChem BioAssay (NCI).
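Results reflect a 48-hour exposure of cells in 96-well plates to compound at five concentrations. GI50 marks 50% less growth. TGI denotes the concentration required for complete inhibition of growth.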

Test system: OVCAR-8 ovarian
Assay: inhibition of tumour cell growth, NCI panel, 48 h

SMILES	TGI	GI50
CC1CN1c1c(C(=O)/C=C/c2ccccc2)c(-c2ccccc2)nn(C)c1=O (stereo not drawn)	41 µM	–
CCOc1nc(N)nc(C)c1N=Nc1ccc(Cl)cc1	> 100 µM	–
c1ccc(P(=Nc2ccccc2N=P(c2ccccc2)(c2ccccc2)c2ccccc2)(c2ccccc2)c2ccccc2)cc1	12.2 µM	–
COCCOCOc1ccc(OCOCCOC)c2c1C(=O)c1ccccc1C2=O	> 100 µM	–
CCO/C=C1\N=C(c2ccccc2Br)OC1=O	> 100 µM	–
O=P1(Oc2ccccc2)C(c2ccccc2)C(c2ccccc2)=NN1c1ccccc1 (stereo not drawn)	> 100 µM	–
CCOC(=O)C(=O)Nc1cc(Cl)ccc1Cl	> 100 µM	–
N#Cc1ccc(N=Cc2c([O-])ccc3ccccc23)cc1.[C-]#[O+].[C-]#[O+].[Ir]	28 µM	6.03 µM
[N-]=[N+]=C1C(=O)C2CC3CC(C2)CC1C3	> 100 µM	–
COC(=O)CC1NC(=O)C1C1(C)OCCO1 (stereo not drawn)	> 100 µM	–
COC(CN1C=C(Sc2ccccc2)CC1)OC	86.9 µM	–
CN(C)CCC(/C=C/c1ccccc1)=N\Nc1ccc(Cl)cc1Cl	30.3 µM	–
COc1ccc(C=O)c(NC(=O)C(C)C)c1	> 100 µM	–
Cc1cc2c(c(C(=O)O)c1C)-c1cccc(F)c1C2=O	> 100 µM	–
Cc1ccc(S(=O)OC2C3CC4CC(C3)CC2C4)cc1 (stereo not drawn)	> 100 µM	–
COc1ccc2c(c1)OC1=C(C(=O)OC1)C2c1cc(OC)c2c(c1)OCO2 (stereo not drawn)	> 100 µM	0.0516 µM

SMILES	TGI	GI50
CN(C)c1ccc(/C=C2\C=Cc3ccccc32)cc1	> 100 µM	–
COc1cc2nc(NCCCCCNC(=O)c3ccco3)nc(N)c2cc1OC	> 100 µM	–
C/C=C(\C)c1cc(O)c(C)c2c1Oc1cc(O)c(Cl)c(C)c1C(=O)O2	45.9 µM	–
COC(=O)C(C)(C)N=CN(C)C	> 100 µM	–
C[C@@H]1O[C@@H](OC[C@H]2O[C@@H](OCCc3ccc(O)c(O)c3)[C@H](O)[C@@H](O)[C@@H]2OC(=O)/C=C/c2ccc(O)c(O)c2)[C@H](O)[C@H](O)[C@H]1O	> 100 µM	> 100 µM
Cc1cc(N(CCC#N)CCC#N)ccc1/C=C1/N=C(c2ccccc2)N(N)C1=O	> 100 µM	–
CCOC1=C2N=C(Cc3ccccc3F)N=C2C(=O)c2ccccc21	> 100 µM	–
CNS(=O)(=O)NNS(=O)(=O)c1ccc(Cl)cc1	> 100 µM	–
C=C1CCC2[C@@H](CCC3[C@]2(C)CCC[C@]3(C)C(=O)OC)[C@@H]1CC=O (stereo partly drawn)	49.2 µM	–
CCCCCCCCCCCCCP(=O)(O)NCC(N)=O	> 100 µM	–
CN1COc2c(n(C)c(=O)[nH]c2=O)C1	> 100 µM	–
CC1(C)OCC(C(O)C2OC(C)(C)OC2/C=N\O)O1 (stereo not drawn)	> 100 µM	–
CCCCCCN(N)C(=O)CC#N	> 100 µM	–
COc1ccc(C(Cl)=C(c2ccc(OCCN(C)C)cc2)c2ccc(OCCN(C)C)cc2)cc1	4.06 µM	–
CC1(C)C2CCC13CS(=O)(=O)N1O[C@]13C(=O)O2 (stereo partly drawn)	> 100 µM	–

Test system: MDA-MB-231 breast
Assay: inhibition of tumour cell growth, NCI panel, 48 h

SMILES	GI50	TGI
COc1ccc(/C=N/NC(=O)Cn2c(-c3ccc(S(C)(=O)=O)cc3)nc3cc(Cl)ccc32)cc1	2480 nM	> 50 µM
CCOc1nc(N)nc(C)c1N=Nc1ccc(Cl)cc1	–	> 100 µM
COc1ccc2c(c1)OC1=C(C(=O)OC1)C2c1cc(OC)c2c(c1)OCO2 (stereo not drawn)	68.9 nM	> 100 µM
C[C@@H]1O[C@@H](OC[C@H]2O[C@@H](OCCc3ccc(O)c(O)c3)[C@H](O)[C@@H](O)[C@@H]2OC(=O)/C=C/c2ccc(O)c(O)c2)[C@H](O)[C@H](O)[C@H]1O	> 100000 nM	> 100 µM

Test system: SNB-19 CNS
Assay: inhibition of tumour cell growth, NCI panel, 48 h

SMILES	GI50	TGI
COc1ccc(/C=N/NC(=O)Cn2c(-c3ccc(S(C)(=O)=O)cc3)nc3cc(Cl)ccc32)cc1	1.53 µM	> 50 µM
CC1CN1c1c(C(=O)/C=C/c2ccccc2)c(-c2ccccc2)nn(C)c1=O (stereo not drawn)	–	50.2 µM
CCOc1nc(N)nc(C)c1N=Nc1ccc(Cl)cc1	–	> 100 µM
c1ccc(P(=Nc2ccccc2N=P(c2ccccc2)(c2ccccc2)c2ccccc2)(c2ccccc2)c2ccccc2)cc1	–	16.9 µM
COCCOCOc1ccc(OCOCCOC)c2c1C(=O)c1ccccc1C2=O	–	> 100 µM
CCO/C=C1\N=C(c2ccccc2Br)OC1=O	–	> 100 µM
O=P1(Oc2ccccc2)C(c2ccccc2)C(c2ccccc2)=NN1c1ccccc1 (stereo not drawn)	–	> 100 µM
CCOC(=O)C(=O)Nc1cc(Cl)ccc1Cl	–	> 100 µM
N#Cc1ccc(N=Cc2c([O-])ccc3ccccc23)cc1.[C-]#[O+].[C-]#[O+].[Ir]	18.4 µM	33.2 µM
[N-]=[N+]=C1C(=O)C2CC3CC(C2)CC1C3	–	> 100 µM
COC(=O)CC1NC(=O)C1C1(C)OCCO1 (stereo not drawn)	–	> 100 µM
COC(CN1C=C(Sc2ccccc2)CC1)OC	–	> 100 µM
CN(C)CCC(/C=C/c1ccccc1)=N\Nc1ccc(Cl)cc1Cl	–	29.4 µM
COc1ccc(C=O)c(NC(=O)C(C)C)c1	–	> 100 µM
Cc1cc2c(c(C(=O)O)c1C)-c1cccc(F)c1C2=O	–	> 100 µM
Cc1ccc(S(=O)OC2C3CC4CC(C3)CC2C4)cc1 (stereo not drawn)	–	> 100 µM

SMILES	GI50	TGI
COc1ccc2c(c1)OC1=C(C(=O)OC1)C2c1cc(OC)c2c(c1)OCO2 (stereo not drawn)	0.0531 µM	> 100 µM
CN(C)c1ccc(/C=C2\C=Cc3ccccc32)cc1	–	> 100 µM
COc1cc2nc(NCCCCCNC(=O)c3ccco3)nc(N)c2cc1OC	–	> 100 µM
C/C=C(\C)c1cc(O)c(C)c2c1Oc1cc(O)c(Cl)c(C)c1C(=O)O2	–	31.6 µM
COC(=O)C(C)(C)N=CN(C)C	–	> 100 µM
C[C@@H]1O[C@@H](OC[C@H]2O[C@@H](OCCc3ccc(O)c(O)c3)[C@H](O)[C@@H](O)[C@@H]2OC(=O)/C=C/c2ccc(O)c(O)c2)[C@H](O)[C@H](O)[C@H]1O	> 100 µM	> 100 µM
Cc1cc(N(CCC#N)CCC#N)ccc1/C=C1/N=C(c2ccccc2)N(N)C1=O	–	> 100 µM
CCOC1=C2N=C(Cc3ccccc3F)N=C2C(=O)c2ccccc21	–	> 100 µM
CNS(=O)(=O)NNS(=O)(=O)c1ccc(Cl)cc1	–	> 100 µM
C=C1CCC2[C@@H](CCC3[C@]2(C)CCC[C@]3(C)C(=O)OC)[C@@H]1CC=O (stereo partly drawn)	47.5 µM	> 100 µM
CCCCCCCCCCCCCP(=O)(O)NCC(N)=O	–	> 100 µM
CN1COc2c(n(C)c(=O)[nH]c2=O)C1	–	> 100 µM
CC1(C)OCC(C(O)C2OC(C)(C)OC2/C=N\O)O1 (stereo not drawn)	–	> 100 µM
O=C(O)/C(Cl)=C(\Cl)C(=O)Nc1ccc(Cl)c(Cl)c1Cl	–	30.2 µM
COc1ccc(C(Cl)=C(c2ccc(OCCN(C)C)cc2)c2ccc(OCCN(C)C)cc2)cc1	–	7.43 µM
CC1(C)C2CCC13CS(=O)(=O)N1O[C@]13C(=O)O2 (stereo partly drawn)	–	> 100 µM
